# From PubChem BioAssay AID1417 (Emory University Molecular Libraries Screening Center, 2008)
# Target: Induced myeloid leukemia cell differentiation protein Mcl-1 (Homo sapiens) (UniProt Q07820)
# Test: Mcl-1 Noxa peptide disruption concentration-response – biochemical, TR-FRET, dose response (AID 1417)
# Settings: Mcl-1/Noxa peptide interaction, cell-free TR-FRET (terbium/rhodamine), 2 h; measured here: absolute IC50
# Induced myeloid leukemia cell differentiation protein Mcl-1 (Homo sapiens), sequence (Q07820 whole entry, looked up): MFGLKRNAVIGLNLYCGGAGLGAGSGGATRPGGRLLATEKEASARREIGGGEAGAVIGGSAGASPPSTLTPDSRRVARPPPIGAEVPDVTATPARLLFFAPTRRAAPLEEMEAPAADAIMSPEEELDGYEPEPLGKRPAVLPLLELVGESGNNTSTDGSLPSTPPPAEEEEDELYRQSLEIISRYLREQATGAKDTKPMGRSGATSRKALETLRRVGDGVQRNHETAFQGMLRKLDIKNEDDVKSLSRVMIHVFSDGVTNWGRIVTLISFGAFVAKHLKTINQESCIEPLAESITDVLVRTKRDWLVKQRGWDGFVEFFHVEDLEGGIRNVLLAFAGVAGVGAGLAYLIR
row,SMILES,IC50 [nM]
1,COc1ccc(/C=C/C(=O)NC(=S)Nc2cc([N+](=O)[O-])ccc2O)cc1OC,1120
2,CCC1=NN2C(=N)/C(=C\c3ccc(OCc4cc(=O)n5nc(CC)sc5n4)c(OC)c3)C(=O)N=C2S1,2310
3,CCNc1ccc(Br)cc(C(=O)/C=C/c2ccc(Cl)cc2)c1=O,2030
4,C=CCOc1c(OC)cc(/C=N/Nc2cccc(C(=O)O)c2)c(Br)c1Br,> 54000
5,O=C(N/N=C/c1ccc(-c2ccc(S(=O)(=O)Nc3ncccn3)cc2)o1)c1cc2ccccc2cc1O,1430
6,CN(C)c1ncc(C2=C(Cl)C(=O)C(N3CCCC3)=C(Cl)C2=O)s1,< 400
7,O=C1/C(=C/C=C/c2ccco2)SC(=S)N1c1ccc(O)cc1,< 400
8,COc1cc(/C=C2/SC(=S)NC2=O)ccc1OS(=O)(=O)c1ccc(C)cc1,3260
9,C=CCc1c(C)nc(SCCC)[nH]c1=O,> 54000
10,COc1ccc2c3c(cccc13)N(C)N=C2C,931
11,CC(=O)Nc1ccc(C2=NNC(=Nc3ccc(S(=O)(=O)N4CCOCC4)cc3)SC2)cc1,< 400
12,O=C(Nc1nccs1)c1cc(-c2ccco2)nc2ccccc12,1400
13,Cc1nc(N)sc1-c1csc(Nc2ncccn2)n1,3980
14,Oc1c(Cl)cc(Cl)c(Cl)c1Cc1c(O)c(Cl)cc(Cl)c1Cl,< 400
15,COc1ccc(CCNC(=O)CN(c2ccc(OC)c(OC)c2)S(C)(=O)=O)cc1,> 54000
16,COc1ccc(C(=O)O)cc1NC(=S)NC(=O)c1ccc(-c2ccc(Cl)cc2)o1,> 54000
17,COc1ccc(C2=NN(c3nc(-c4ccccc4)c(CC(=O)O)s3)C(c3ccco3)C2)cc1 (centres undefined),11900
18,COc1ccc(N2CCC(CNC(=O)Nc3ccc(C)c(C)c3)C2)cc1 (centres undefined),> 54000
19,O=c1cc(-c2ccc([N+](=O)[O-])cc2)nc2cc(-c3ccc(Cl)cc3)[nH]n12,1630
20,CCOC(=O)C1=C(O)c2ccccc2C(=O)/C1=C\c1ccc(CC)cc1,< 400
21,Cc1ccc(OCC(=O)Nc2ccc(N3CCCC3)cc2)cc1C,7070
22,N=C1CCC(=N)c2c1c(O)c1ccccc1c2O,> 54000
23,COC(=O)c1cc(-c2ccc(C)o2)nc2ccccc12,14800
24,O=C1/C(=C\c2ccc(O)cc2)SC(=S)N1/N=C/c1ccc(O)cc1,2990
25,CCCCCc1nc2c(=O)[nH]c3ccccc3c2o1,> 54000
26,S=c1[nH]nc(-c2cc(-c3ccccc3)n[nH]2)n1/N=C/c1c2ccccc2cc2ccccc12,> 54000
27,CNc1ccc(Br)cc(C(=O)/C=C/c2cc(OC)ccc2OC)c1=O,1730

row,SMILES,IC50 [nM]
1,COc1ccccc1N1C(=O)C2ON(c3ccccc3)C(c3ccc(N(C)C)cc3)C2C1=O (centres undefined),> 54000
2,CC(=O)N1CCc2cc(S(=O)(=O)NC(Cc3ccccc3)C(=O)NC3CCCCCC3)ccc21 (centres undefined),> 54000
3,COc1ccc(OC)c(/C=N/c2oc(-c3ccco3)c(-c3ccco3)c2C#N)c1,9720
4,O=C(Nc1cccc(S(=O)(=O)NC2=NCCCCC2)c1)c1cc(-c2ccco2)nc2ccccc12,< 400
5,Oc1cccc2cc3cccc(O)c3c(O)c12,1960
6,CCc1cc(C(=O)N=Nc2c(O)[nH]c3ccc([N+](=O)[O-])cc23)c2ccccc2n1,5990
7,O=C1CCCC2=C1C(c1ccc(O)c(O)c1)Nc1ccc3ncccc3c12 (centres undefined),< 400
8,Cc1cccc(/N=C/c2sc3ccccc3c2O)n1,759
9,CCC(=O)NC1=C(Cl)C(=O)C(NC(=O)CC)=C(Cl)C1=O,< 400
10,O=C(c1ccc2nc(-c3ccco3)c(-c3ccco3)nc2c1)N1CCN(c2ncccn2)CC1,12600
11,O=c1cc(/N=C/c2coc3c(ccc4ccccc43)c2=O)[nH]c(=S)[nH]1,4080
12,O=C(Nc1ccc(Cl)cc1)Nc1nnc(/C=C/c2ccccc2)s1,4060
13,Nc1ccc(-c2nc3cc([N+](=O)[O-])ccc3o2)cc1,7160
14,CN(c1ccccc1)c1ccc(/C=C(\CCC(=O)O)c2nc3ccccc3s2)cc1[N+](=O)[O-],1060
15,CCc1nnc(NC(=O)c2cc(-c3ccco3)nc3ccccc23)s1,2540
16,CC(=O)C1=C(S(=O)(=O)c2ccc(C)cc2)CS(=O)(=O)C1,< 400
17,O=c1c2ccccc2nc(-c2ccco2)n1-c1cccnc1,> 54000
18,O=C(O)CSc1cc(C(=O)c2ccccc2O)cn2c(=O)c3c(-c4ccccc4)csc3nc12,5710
19,CCN(CC)c1ccc(NC(=O)c2ccc3c(c2)c(C)c(C)n3C)cc1,> 54000
20,Cn1c(=O)c(C(=O)COC(=O)c2cc(-c3ccco3)nc3ccccc23)c(N)n(Cc2ccccc2)c1=O,< 400
21,COc1cc(C2C3=C(Nc4nc(N)[nH]c(=O)c42)c2ccccc2C3=O)ccc1O (centres undefined),2280
22,CCCCNC(=O)c1ccc2nc(-c3ccco3)c(-c3ccco3)nc2c1,< 400
23,CC1=NOC(=O)/C1=C\c1ccc(-c2ccc(Cl)cc2Cl)o1,< 400
24,C=CCOC(=O)c1cc(-c2ccc(/C=C3\C(=O)NC(=O)C(C#N)=C3C)o2)ccc1Cl,< 400
25,O=C(O)CSc1cc(C(=O)c2cc(F)ccc2O)cn2c(=O)c3c(-c4ccccc4)csc3nc12,2120
26,Cc1cccc(NC(=O)CSc2nnc(-c3ccco3)c(-c3ccco3)n2)c1,6580
27,O=C(O)c1ccc(N2C(=O)/C(=C/c3ccc(-c4ccc([N+](=O)[O-])cc4)o3)C=C2c2ccccc2)cc1,< 400
